Source: US20050282873A1, “Epothilone derivative for the treatment of hepatoma and other cancer diseases” (priority 2002, published 2005)

How the values were obtained:
Format in all cases: in vivo, human
[1] = tested on: advanced colorectal cancer; assay: Open-label, single-arm, two-stage multicenter efficacy study in advanced colorectal cancer, once every three weeks; details: i.v. 6.0 mg/m^2, 5 minute bolus infusion once every three weeks; colorectal cancer patients who failed fluoropyrimidine and Irinotecan or oxaliplatin; trial ongoing
Procedure: An open-label, single-arm, two-stage, multicenter study to investigate the efficacy of 7,11-Dihydroxy-8,8,10,12,16-pentamethyl-3-[1-methyl-2-(2-methyl-thiazol-4-yl)-vinyl]4,17-dioxa-bicyclo[14.1.0]heptadecane-5,9-dione administered intravenously at 6.0 mg/m^2 as a 5 minute bolus infusion repeated once every three weeks in patients with advanced colorectal cancer. 7,11-Dihydroxy-8,8,10,12,16-pentamethyl-3-[1-methyl-2-(2-methyl-thiazol-4-yl)vinyl]4,17-dioxa-bicyclo[14.1.0]heptadecane-5,9-dione is administered once every three weeks until either progression of disease or unacceptable toxicities occurs. Each three-week period is considered one cycle. Patients are evaluated for tumor response one week after the last dose of every third cycle, starting with Cycle 3. Patients may, at any time, have their dose reduced to 5.4 mg/m^2 or 4.8 mg/m^2 if in the investigator's opinion the original dose is either intolerable or unsafe for any given patient, and without such a dose reduction the patient will be forced to withdraw from the study. All dose modifications are captured on the Dose Administration Record CRF.
The study period for efficacy evaluation is up to nine cycles. […]

[2] = tested on: advanced colorectal cancer; assay: Open-label, single-arm, two-stage multicenter efficacy study in advanced colorectal cancer, weekly regimen; details: i.v. 2.5 mg/m2, 5 minute bolus infusion weekly for three weeks, one week off; colorectal cancer patients who failed fluoropyrimidine and Irinotecan or oxaliplatin; trial ongoing
Procedure: An open-label, single-arm, two-stage multicenter study to investigate the efficacy of 7,11-Dihydroxy-8,8,10,12,16-pentamethyl-3-[1-methyl-2-(2-methyl-thiazol-4-yl)vinyl]-4,17-dioxa-bicyclo[14.1.0]heptadecane-5,9-dione administered intravenously at 2.5 mg/m2 as a 5 minute bolus infusion repeated every week for three weeks followed by one week off in patients with advanced colorectal cancer. 7,11-Dihydroxy-8,8,10,12,16-pentamethyl-3-[1-methyl-2-(2-methyl-thiazol-4-yl)-vinyl-]-4,17-dioxa-bicyclo[14.1.0]heptadecane-5,9-dione is administered once every week for three weeks followed by a one-week drug holiday until either progression of disease or unacceptable toxicities occurs. Each four-week period is considered one cycle. Patients are evaluated for tumor response one week after their last dose of every other cycle, starting with Cycle 2. Patients may, at any time, have their dose reduced to 2.0 mg/m^2 if in the investigator's opinion the original dose is either intolerable or unsafe for any given patient, and without such a dose reduction the patient will be forced to withdraw from the study. All dose modifications are captured on the dose administration record CRF. The study period for efficacy evaluation is up to six cycles. […]

[3] = tested on: ovarian, primary Fallopian, or primary peritoneal cancer; assay: Open-label, single-arm, two-stage, multi-center efficacy study in ovarian, primary Fallopian or primary peritoneal cancer patients; details: i.v. 2.5 mg/m2, 5 minute bolus infusion weekly for three weeks, one week off; patients failed or relapsed within six months of first-line taxane/platinum therapy; study ongoing
Procedure: An open-label, single-arm, two-stage, multi-center study investigating the efficacy of 7,11-Dihydroxy-8,8,10,12,16-pentamethyl-3-[1-methyl-2-(2-methyl-thiazol-4-yl)-vinyl]-4,17-dioxa-bicyclo[14.1.0]heptadecane-5,9-dione administered intravenously at 2.5 mg/m2 as a 5 minute bolus infusion repeated every week for three weeks followed by one week off in patients who have ovarian, primary Fallopian, or primary peritoneal cancer. […] Chemotherapies other than taxane/platinum or an additional agent to this regimen will not be allowed. […] A third therapeutic agent administered as part of the taxane/platinum therapy is permitted for refractory disease if all other criteria are met.

advanced renal cancer = assay: Open-label, single-arm, two-stage multicenter efficacy study in patients with advanced renal cancer; details: i.v. 2.5 mg/m2, 5 minute bolus infusion weekly for three weeks, one week off, trial ongoing
Procedure: An open-label, single-arm, two-stage multicenter study investigating the efficacy of 7,11-Dihydroxy-8,8,10,12,16-pentamethyl-3-[1-methyl-2-(2-methyl-thiazol-4-yl)-viny]-4,17-dioxa-bicyclo[14.1.0]heptadecane-5,9-dione administered intravenously at 2.5 mg/m2 as a 5 minute bolus infusion repeated every week for three weeks followed by one week off in patients with advanced renal cancer. 7,11-Dihydroxy-8,8,10,12,16-pentamethyl-3-[1-methyl-2-(2-methyl-thiazol-4-yl)-vinyl]-4,17-dioxa-bicyclo[14.1.0]heptadecane-5,9-dione is administered once every week for three weeks followed by a one-week drug holiday until either progression of disease or unacceptable toxicities occurs. Each four-week period is considered one cycle. Patients are evaluated for tumor response one week after their last dose of every other cycle, starting with Cycle 2. Patients may, at any time, have their dose reduced to 2.0 mg/m2 if in the investigators opinion the original dose is either intolerable or unsafe for any given patient, and without such a dose reduction the patient would be forced to withdraw from the study. All dose modifications are captured on the dose administration record CRF. The study period for efficacy evaluation is up to six cycles. The study will enroll patients with histologically confirmed transitional cell carcinoma of the kidney. […]

[4] = tested on: androgen-independent prostate cancer; assay: Open-label, single-arm, two-stage multicenter efficacy study in androgen-independent prostate cancer; details: i.v. 2.5 mg/m^2, 5 minute bolus infusion weekly for three weeks, one week off; chemo-naïve or failed one prior chemotherapy; trial ongoing
Procedure: Open-label, single-arm, two-stage, multicenter study to investigate the efficacy of EPO906 administered intravenously at 2.5 mg/m^2 as a 5 minute bolus infusion once a week for three weeks followed by one week off in patients with androgen-independent prostate cancer who are chemo-naïve or who have failed one prior chemotherapy. 7,11-Dihydroxy-8,8,10,12,16-pentamethyl-3-[1-methyl-2-(2-methyl-thiazol-4-yl)-vinyl]-4,17-dioxa-bicyclo[14.1.0]heptadecane-5,9-dione is administered once every week for three weeks followed by a one-week drug holiday until either progression of disease or unacceptable toxicities occurs. Each four-week period is considered one cycle. Patients are evaluated for tumor response one week after their last dose of every other cycle, starting with Cycle 2. Patients may, at any time, have their dose reduced to 2.0 mg/m^2 if in the investigator's opinion the original dose is either intolerable or unsafe for any given patient, and without such a dose reduction the patient will be forced to withdraw from the study. All dose modifications are captured on the dose administration record CRF. The study period for efficacy evaluation is up to six cycles.
Patients taking PC-SPES must discontinue therapy for a minimum of 4 weeks. […]

Structure (SMILES): CC(=Cc1csc(C)n1)C1CC2OC2(C)CCCC(C)C(O)C(C)C(=O)C(C)(C)C(O)CC(=O)O1 (centres unmarked) [7,11-Dihydroxy-8,8,10,12,16-pentamethyl-3-[1-methyl-2-(2-methyl-thiazol-4-yl)-vinyl]-4,17-dioxa-bicyclo[14.1.0]heptadecane-5,9-dione]
- response of patients in the trial [1]: Several patients shown a positive response
- response of patients in the trial [2]: Several patients shown a positive response
- response of patients in the study [3]: Several patients show a positive response
- response of patients in the study (advanced renal cancer): Several patients show a positive response
- response of patients in the trial [4]: Several patients show a positive response
